Source: patent publication US6737383B1, “Herbicidal oxadiazolidines” (priority 1999, dated 2004)

Legend:
bedstraw = assay: Test B pre/postemergence bedstraw; format: in vivo, Galium aparine; conditions: Preemergence
How it was run: (§1)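 Herbicidal effect was estimated by eye on a ten-point control scale after plants spent twelve to sixteen days in a greenhouse following soil or foliar treatment. Foliar sprays targeted plants at one to four leaves; all doses were formulated in a non-phytotoxic solvent with surfactant.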

cocklebur = assay: Test B pre/postemergence cocklebur; format: in vivo, Xanthium strumarium; conditions: for Plant response rating, Cocklebur: scale of 0 to 10 where 0 is no effect and 10 is complete control
How it was run: as §1

purple nutsedge = assay: Test B pre/postemergence purple nutsedge; format: in vivo, Cyperus rotundus
How it was run: as §1

corn = assay: Test B pre/postemergence corn; format: in vivo, Zea mays; conditions: for Plant response rating, Corn: scale of 0 to 10 where 0 is no effect and 10 is complete control
How it was run: as §1

giant foxtail = assay: Test B pre/postemergence giant foxtail; format: in vivo, Setaria faberii; conditions: for Plant response rating, Giant foxtail: scale of 0 to 10 where 0 is no effect and 10 is complete control
How it was run: as §1

velvetleaf = assay: Test B pre/postemergence velvetleaf; format: in vivo, Abutilon theophrasti; conditions: for Velvetleaf plant response rating: Rate 125 g/ha, scale 0 to 10, 0 is no effect, 10 is complete control; for Plant response rating, Velvetleaf: scale of 0 to 10 where 0 is no effect and 10 is complete control
How it was run: as §1

rape = assay: Test B pre/postemergence rape; format: in vivo, Brassica napus; conditions: for Plant response rating, Rape: scale of 0 to 10 where 0 is no effect and 10 is complete control
How it was run: as §1

pigweed = assay: Test B pre/postemergence pigweed; format: in vivo, Amaranthus retroflexus; conditions: for Plant response rating, Redroot pigweed: scale of 0 to 10 where 0 is no effect and 10 is complete control
How it was run: as §1

surinam grass = assay: Test B pre/postemergence surinam grass; format: in vivo, Brachiaria decumbens; conditions: for Plant response rating, B. signalgrass: scale of 0 to 10 where 0 is no effect and 10 is complete control
How it was run: as §1

blackgrass = assay: Test B pre/postemergence blackgrass; format: in vivo, Alopecurus myosuroides; conditions: for Plant response rating, Blackgrass: scale of 0 to 10 where 0 is no effect and 10 is complete control
How it was run: as §1

morningglory = assay: Test B pre/postemergence morningglory; format: in vivo, Ipomoea hederacea; conditions: for Plant response rating, Morningglory: scale of 0 to 10 where 0 is no effect and 10 is complete control
How it was run: as §1

soybean = assay: Test B pre/postemergence soybean; format: in vivo, Glycine max; conditions: for Plant response rating, Soybean: scale of 0 to 10 where 0 is no effect and 10 is complete control
How it was run: as §1

wheat = assay: Test B pre/postemergence wheat; format: in vivo, Triticum aestivum; conditions: for Plant response rating, Wheat: scale of 0 to 10 where 0 is no effect and 10 is complete control
How it was run: as §1

wild oat = assay: Test B pre/postemergence wild oat; format: in vivo, Avena fatua; conditions: for Plant response rating, Wild oats: scale of 0 to 10 where 0 is no effect and 10 is complete control
How it was run: as §1

sugar beet = assay: Test B pre/postemergence sugar beet; format: in vivo, Beta vulgaris; conditions: for Plant response rating, Sugarbeets: scale of 0 to 10 where 0 is no effect and 10 is complete control
How it was run: as §1

crabgrass = assay: Test B pre/postemergence crabgrass; format: in vivo, Digitaria sanguinalis; conditions: for Plant response rating, Crabgrass: scale of 0 to 10 where 0 is no effect and 10 is complete control
How it was run: as §1

[1] = Postemergence, Rate 31 g/ha, visual rating, scale 0 to 10 (0 no effect, 10 complete control)
[2] = Postemergence, Rate 62 g/ha, scale of 0 to 10, 0 is no effect, 10 is complete control
[3] = Postemergence, Rate 125 g/ha, scale 0 to 10, 0 is no effect, 10 is complete control
[4] = Preemergence, Rate 31 g/ha, visual rating, scale 0 to 10 (0 no effect, 10 complete control)
[5] = Preemergence, Rate 125 g/ha, scale 0 to 10, 0 is no effect, 10 is complete control

CC(C)N(C(=O)n1oc(=O)n(C[Si](C)(C)C)c1=O)c1ccc(F)cc1F [Compound 518]
7: Rape plant response rating (rape; [3]) | Plant response rating, Rape (rape; Rate 250 g/ha, Postemergence) | B. signalgrass plant response rating (surinam grass; [3]) | Plant response rating, B. signalgrass (surinam grass; Rate 250 g/ha, Postemergence) | Blackgrass plant response rating (blackgrass; [3]) | Plant response rating, Blackgrass (blackgrass; Preemergence, Rate 62 g/ha) | Blackgrass plant response rating (0 to 10 scale) (blackgrass; Preemergence, Rate 250 g/ha) | Plant response rating, Blackgrass (blackgrass; Rate 250 g/ha, Postemergence)
6: Wild oats plant response rating (wild oat; [5])
3: B. signalgrass plant response rating (surinam grass; [1]) | B. signalgrass plant response rating (surinam grass; [5]) | Wheat plant response rating (0 to 10 scale) (wheat; Preemergence, Rate 250 g/ha) | Sugarbeets plant response rating (sugar beet; [3]) | Plant response rating, Sugarbeets (sugar beet; Rate 250 g/ha, Postemergence)
2: Plant response rating, Giant foxtail (giant foxtail; Rate 250 g/ha, Postemergence) | Velvetleaf plant response rating (velvetleaf; Postemergence) | Plant response rating, Redroot pigweed (pigweed; Preemergence, Rate 62 g/ha) | Redroot pigweed plant response rating (pigweed; [5]) | Wheat plant response rating (wheat; [5]) | Wild oats plant response rating (wild oat; [3]) | Plant response rating, Wild oats (wild oat; Rate 250 g/ha, Postemergence) | Sugarbeets plant response rating (sugar beet; [5]) | Sugarbeets plant response rating (0 to 10 scale) (sugar beet; Preemergence, Rate 250 g/ha) | Crabgrass plant response rating (crabgrass; [3])
5: Morningglory plant response rating (morningglory; [1]) | Morningglory plant response rating (morningglory; [2]) | Morningglory plant response rating (morningglory; [3]) | Soybean plant response rating (soybean; [3]) | Plant response rating, Soybean (soybean; Rate 250 g/ha, Postemergence)
8: Blackgrass plant response rating (blackgrass; [5]) | Plant response rating, Morningglory (morningglory; Rate 250 g/ha, Postemergence) | Wild oats plant response rating (0 to 10 scale) (wild oat; Preemergence, Rate 250 g/ha)
4: Plant response rating, Velvetleaf (velvetleaf; Rate 250 g/ha, Postemergence) | Redroot pigweed plant response rating (0 to 10 scale) (pigweed; Preemergence, Rate 250 g/ha) | Blackgrass plant response rating (blackgrass; [1]) | Blackgrass plant response rating (blackgrass; [2]) | Blackgrass plant response rating (blackgrass; [4]) | Soybean plant response rating (soybean; [1]) | Soybean plant response rating (soybean; [2]) | Plant response rating, Wild oats (wild oat; Preemergence, Rate 62 g/ha)
0: Bedstraw plant response rating (bedstraw; Rate 31 g/ha, visual rating, scale 0 to 10 (0 no effect, 10 complete control)) | Plant response rating, Bedstraw (bedstraw; Rate 62 g/ha, scale of 0 to 10 where 0 is no effect and 10 is complete control) | Bedstraw plant response rating (bedstraw; Rate 125 g/ha, scale 0 to 10, 0 is no effect, 10 is complete control) | Bedstraw plant response rating (0 to 10 scale) (bedstraw; Rate 250 g/ha) | Cocklebur plant response rating (cocklebur; [1]) | Cocklebur plant response rating (cocklebur; [2]) | Cocklebur plant response rating (cocklebur; [3]) | Cocklebur plant response rating (cocklebur; [4]) | Plant response rating, Cocklebur (cocklebur; Preemergence, Rate 62 g/ha) | Cocklebur plant response rating (cocklebur; [5]) | Cocklebur plant response rating (0 to 10 scale) (cocklebur; Preemergence, Rate 250 g/ha) | Plant response rating, Cocklebur (cocklebur; Rate 250 g/ha, Postemergence) | Nutsedge plant response rating (purple nutsedge; [1]) | Nutsedge plant response rating (purple nutsedge; [2]) | Nutsedge plant response rating (purple nutsedge; [3]) | Plant response rating, Nutsedge (purple nutsedge; Preemergence, Rate 62 g/ha, scale of 0 to 10 where 0 is no effect and 10 is complete control) | Nutsedge plant response rating (purple nutsedge; [5]) | Nutsedge plant response rating (0 to 10 scale) (purple nutsedge; Preemergence, Rate 250 g/ha) | Corn plant response rating (corn; [1]) | Corn plant response rating (corn; [2]) | Corn plant response rating (corn; [3]) | Corn plant response rating (corn; [4]) | Plant response rating, Corn (corn; Preemergence, Rate 62 g/ha) | Corn plant response rating (corn; [5]) | Corn plant response rating (0 to 10 scale) (corn; Preemergence, Rate 250 g/ha) | Plant response rating, Corn (corn; Rate 250 g/ha, Postemergence) | Giant foxtail plant response rating (giant foxtail; [1]) | Giant foxtail plant response rating (giant foxtail; [2]) | Giant foxtail plant response rating (giant foxtail; [3]) | Giant foxtail plant response rating (giant foxtail; [4]) | Plant response rating, Giant foxtail (giant foxtail; Preemergence, Rate 62 g/ha) | Giant foxtail plant response rating (giant foxtail; [5]) | Giant foxtail plant response rating (0 to 10 scale) (giant foxtail; Preemergence, Rate 250 g/ha) | Plant response rating, Velvetleaf (velvetleaf; Preemergence, Rate 62 g/ha) | Velvetleaf plant response rating (velvetleaf; Preemergence) | Velvetleaf plant response rating (0 to 10 scale) (velvetleaf; Preemergence, Rate 250 g/ha) | Rape plant response rating (rape; [1]) | Rape plant response rating (rape; [2]) | Plant response rating, Rape (rape; Preemergence, Rate 62 g/ha) | Rape plant response rating (rape; [5]) | Rape plant response rating (0 to 10 scale) (rape; Preemergence, Rate 250 g/ha) | Redroot pigweed plant response rating (pigweed; [1]) | Redroot pigweed plant response rating (pigweed; [2]) | Redroot pigweed plant response rating (pigweed; [3]) | Plant response rating, Redroot pigweed (pigweed; Rate 250 g/ha, Postemergence) | B. signalgrass plant response rating (surinam grass; [4]) | Plant response rating, B. signalgrass (surinam grass; Preemergence, Rate 62 g/ha) | Plant response rating, Morningglory (morningglory; Preemergence, Rate 62 g/ha) | Morningglory plant response rating (morningglory; [5]) | Morningglory plant response rating (0 to 10 scale) (morningglory; Preemergence, Rate 250 g/ha) | Plant response rating, Soybean (soybean; Preemergence, Rate 62 g/ha) | Soybean plant response rating (soybean; [5]) | Soybean plant response rating (0 to 10 scale) (soybean; Preemergence, Rate 250 g/ha) | Wheat plant response rating (wheat; [1]) | Wheat plant response rating (wheat; [2]) | Wheat plant response rating (wheat; [3]) | Plant response rating, Wheat (wheat; Preemergence, Rate 62 g/ha) | Plant response rating, Wheat (wheat; Rate 250 g/ha, Postemergence) | Wild oats plant response rating (wild oat; [1]) | Wild oats plant response rating (wild oat; [2]) | Sugarbeets plant response rating (sugar beet; [1]) | Sugarbeets plant response rating (sugar beet; [2]) | Plant response rating, Sugarbeets (sugar beet; Preemergence, Rate 62 g/ha) | Crabgrass plant response rating (crabgrass; [1]) | Crabgrass plant response rating (crabgrass; [2]) | Crabgrass plant response rating (crabgrass; [4]) | Plant response rating, Crabgrass (crabgrass; Preemergence, Rate 62 g/ha) | Crabgrass plant response rating (crabgrass; [5]) | Crabgrass plant response rating (0 to 10 scale) (crabgrass; Preemergence, Rate 250 g/ha)
10: B. signalgrass plant response rating (0 to 10 scale, 0 is no effect, 10 is complete control) (surinam grass; Preemergence, Rate 250 g/ha) | Plant response rating, Crabgrass (crabgrass; Rate 250 g/ha, Postemergence)
